Source: patent publication US20220339135A1, “COMPOSITIONS AND METHODS FOR MODULATING AN INFLAMMATORY RESPONSE” (Enzychem Lifesciences Corporation, priority 2019, published 2022)

Tests used:
[1] = tested on: chemo-radiation induced oral mucositis; experiment: Chemo-radiation induced oral mucositis (CRIOM), Example 48; assay type: in vivo, mice
Procedure: Mice (7-9 weeks, Balb/[…]) were administered intraperitoneally 5-FU (100 mg/kg, Sigma Aldrich). After 1 hr, mice head received 20 Gy using x-ray irradiatior (X-RAD 320, 1.8 Gy/min). Custom-made lead shields were used for mice to limit the radiation to the heads. PLAG (Enzychem Lifesciences Co.) was administered orally with 250 mg/kg once daily. The experimental design of the study was represented in schematic design. […] Toluidine blue stains ribonucleotides and detect inflammatory tissues.

NETosis of dHL-60 cells = experiment: IMQ-induced NETosis, confocal microscopy of DNA-elastase complex; assay type: cell-based, human; conditions: PLAG 10 or 100 μg/mL, dose-dependent
Procedure: HL-60 cells were differentiated (dHL-60) to neutrophil-like cells in the culture medium with the addition of 1.3% DMSO (Sigma) for 5 days in a humidified atmosphere at 37° C. without changing the medium. dHL-60 cells (2×10^5 cells/mL) were loaded with 5 μM fluo-4 AM for 45 minutes and washed three times with warmed modified (37° C.) HBSS buffer (137.93 mM NaCl, 5.33 mM KCl, 2 mM CaCl2, 1 mM MgSO4, 2.38 mM HEPES, 5.5 mM glucose, pH to 7.4). The cells were seeded on black-walled 96-well plates and then treated with vehicle (0.1% DMSO), imiquimod (10 μg/mL) or PLAG (10 or 100 μg/mL) just before measurement. Baseline fluorescence was measured before treatment, and fluorescence was read every 20 s for 700 s using an excitation wavelength of 494 nm, an emission wavelength of 516 nm in a FlexStation 3 microplate reader (Molecular Devices). Fluorescence values were reported as F/Fo according to the calculation: [ΔF=(494 nm)f/(516 nm)f−(494 nm)0/(516 nm)0]. […]
HL-60 cells were harvested and detected extracellular DNA-elastase complex by using ELISA and visualized by using confocal microscopy (×400) or scanning electron microscope (SEM) (×8000). HL-60 cells were washed with PBS and mounted in DAPI-containing fluorescence microscopy mounting medium (Invitrogen). Samples were analyzed with a laser scanning confocal microscope (Carl Zeiss, Oberkochen, Germany).

[2] = tested on: gemcitabine-induced neutrophil extravasation; experiment: Gemcitabine-induced neutropenia mice model; assay type: in vivo
Procedure: Male BALB/c mice were randomly divided into 3 groups; normal control group (n=5), gemcitabine only group (n=5) and gemcitabine with PLAG group (n=5). The mice were intraperitoneally (i.p.) injected with 50 mg/kg gemcitabine to induce neutropenia. PLAG was diluted with phosphate-buffered saline (PBS) and then orally administrated at a dose of 50 or 250 mg/kg/day. The normal control group was administered PBS only during the experiment. The whole blood was collected from the orbital sinuses using capillary tubes (Kimble Chase Life Science and Research Products LLC, FL, USA) and collection tubes containing K3E-K3EDTA (Greiner Bio-One International, Germany). To obtain peritoneal cells, 5 ml of cold PBS was injected to the left side of the peritoneal wall using a 5 mL syringe, and the fluid was aspirated from the peritoneum. The collected cells were counted by complete blood count (CBC) analysis using Mindray BC-5300 auto-hematology analyzer (Shenzhen Mindray Biomedical Electronics, China). To establish a 4T1 tumor-bearing mice model, the murine 4T1 mammary carcinoma cells (1×10^5) were subcutaneously injected on the right side of the abdomen. On the 10th day after tumor injection, the mice were intraperitoneally (i.p.) injected with 50 mg/kg gemcitabine, and the next day the whole blood was collected from the orbital sinuses as mentioned above before sacrificing the animals to obtain different organs of the body for RT-PCR.
PLAG inhibits gemcitabine-induced neutrophil extravasation into the peritoneum by down-regulating the expression of adhesion molecules in normal BALB/c mice. Male BALB/c mice of 8-10 weeks of age were orally administrated with 50 or 250 mg/kg of PLAG and then were intraperitoneally injected with 50 mg/kg gemcitabine. After 24 h, blood samples were collected by retro-orbital bleeding, and the number of blood neutrophils was determined by CBC analysis. Each group contains five mice. The population of blood neutrophils was analyzed by flow cytometry. Red cell-lysed whole blood was stained with FITC-conjugated anti-Ly6G and PE-Cy7-conjugated anti-CD11b antibodies to determine the circulating neutrophil population. Ly6G+/CD11b+ cells were further stained with APC-conjugated anti-L-selectin and APC-conjugated anti-LFA-1 antibodies and were analyzed by flow cytometry to determine the expression of adhesion molecules.
The mice were intraperitoneally (i.p.) injected with 50 mg/kg gemcitabine to induce neutropenia. PLAG was diluted with phosphate-buffered saline (PBS) and then orally administrated at a dose of 50 or 250 mg/kg/day. The normal control group was administered PBS only during the experiment. At 15 h after gemcitabine treatment, the whole blood was collected from the orbital sinuses using capillary tubes (Kimble Chase Life Science and Research Products LLC, FL, USA) and collection tubes containing K3E-K3EDTA (Greiner Bio-One International, Kremsmünster, Austria). To obtain peritoneal cells, 5 ml of cold PBS was injected to the left side of the peritoneal wall using a 5 mL syringe, and the fluid was aspirated from the peritoneum. The collected cells were counted by complete blood count (CBC) analysis using Mindray BC-5300 auto-hematology analyzer (Shenzhen Mindray Biomedical Electronics, Guangdong Sheng, China).
To establish a 4T1 tumor-bearing mice model, the murine 4T1 mammary carcinoma cells (1×105) were subcutaneously injected on the right side of the abdomen. On the 10th day after tumor injection, the mice were intraperitoneally (i.p.) injected with 50 mg/kg gemcitabine, and the next day the whole blood was collected from the orbital sinuses as mentioned above before sacrificing the animals to obtain different organs of the body.

[3] = tested on: radiation-induced lung injury; experiment: Radiation-induced lung injury in mice; assay type: in vivo
Procedure: Balb/c mice were grouped into four groups: 1) control group, 2) radiation group, 3) radiation+EC-18 50 mg/kg of PLAG, and 4) radiation+EC-18 250 mg/kg of PLAG. Lung was extracted at day 3 after 6.11Gy of TBI by γ-ray (FIG. 37A). EC-18 was treated daily. Tissue was fixed with formaldehyde, and H&E staining was carried out.

## CCCCC/C=C\C/C=C\CCCCCCCC(=O)OC(COC(C)=O)COC(=O)CCCCCCCCCCCCCCC (racemic) [PLAG, 1-palmitoyl-2-linoleoyl-3-acetylglycerol]
[1]; PLAG 250 mg/kg once daily, day 9
  mucositis and ulcer in tongues: no mucositis and ulcer
[1]; PLAG treated group n=8, day 9
  mice tongues stained with toluidine blue: one out of eight
NETosis of dHL-60 cells
  IMQ-induced NETosis: promotes
[2]; 15 hours after gemcitabine
  neutrophil counts in the peritoneum: effectively decreases
[2]; Gr-1+/CD11b+ cells
  gemcitabine-induced cell surface expression of L-selectin and LFA-1: effectively inhibited
[2]; PLAG 50 and 250 mg/kg oral, 15 hours after gemcitabine, dose-dependent
  circulating neutrophil counts: restored circulating neutrophils to an almost normal range
[2]; gemcitabine 50 mg/kg i.p.
  population of Gr-1+ and CD11b+ neutrophils in the blood: maintained
[3]; 6.11Gy TBI, day 3, dose-dependently
  pulmonary capillary leakage: less pulmonary capillary leakage
[3]; PLAG 50mpk and 250mpk
  leakage erythrocyte at the interstitial tissue: not observed
